Source: PubChem BioAssay AID1963847 (Molecular Pharmacology Branch, DTP, NCI, 2024)

System: 415267-285-R-J2-PDC complex spheroid viability
Experiment: Anticancer human tumor 415267-285-R-J2-PDC patient-derived breast carcinoma cell line growth inhibition [POLQ]
Details: for IC50: curve of first compound; for viability, T/C: stronger effect = lower value
Experimental: Multicellular complex tumor spheroid response to Polymerase (POL) inhibitors (novobiocin, ART-558, RP6685) in combination with a variety of drugs and investigational agents in selected tumor cell lines
The POL inhibitors (novobiocin, ART-558, and RP6685) were evaluated both individually and in combination with standard of care and investigational anticancer small molecules within a complex spheroid model of solid tumors. . Complex spheroids include a stromal component modeled by human endothelial cells (HUVEC) and fibroblasts modeled by human mesenchymal stem cells (MSCs). The concentration ranges selected for each drug and investigational agent were based upon clinically achievable concentrations if the clinical Cmax of the agent was known.
Compounds. The drugs and investigational agents: novobiocin (NSC847541), ART-558 (NSC835418), RP-6685 (NSC848927), peposertib (NSC802822), ceralasertib (NSC780249), elimusertib (NSC800525), camonsertib (NSC841442), AZD-1390 (NSC803789), olaparib (NSC753686), talazoparib (NSC767125), rucaparib (NSC756644), sotorasib (NSC818433), MRTX-1133 (NSC836407), SN-38 (NSC673596), topotecan (NSC609699), epotoside (NSC141540), doxorubicin (NSC123127), gemcitabine (NSC613327), 5-fluorouracil (NSC19893), paclitaxel (NSC125973), vemurafenib (NSC761431), MSA-2 (NSC828583), SN-011 (NSC837082), adavosertib (NSC754352), prexasertib (NSC758257), carboplatin (NSC241240) and oxaliplatin (NSC266046), were obtained from the National Cancer Institute (NCI) Developmental Therapeutics Program Chemical Repository (21). The FDA-approved anticancer drug set is available from the Developmental Therapeutics Program at https://dtp.cancer.gov/organization/dscb/obtaining/. […] The stock solutions were prepared in dimethyl sulfoxide (DMSO, Sigma-Aldrich, St. Louis, MO, cat. D2650), except for the platinum compounds which were prepared in saline (Quality Biological, Gaithersburg, MD, cat. 114-055-101), at 800-fold the tested concentration and stored at -70 degrees C prior to their use. All drugs and investigational agents were tested over a range starting from a high concentration at or near the clinical Cmax and decreasing in half-log increments. If the clinical Cmax for an agent had not been determined, the highest concentration tested was 10 microM, except for SN-38, which was tested at a high concentration of 1 microM.
Cell Culture. All cells were maintained in an incubator at 37 degrees C and 5% CO2 with 95% humidity. The PDC lines were cultured according to standard operating procedures established by the NCI PDMR (https://pdmr.cancer.gov). Table 3 of the manuscript, lists the cell lines along with the number of the three cell types plated to form the mct-spheroids and media for tumor cell growth. After thawing, all PDC lines, except 997537-175-T-J1-PDC and 415267-285-R-J2-PDC, were cultured in Matrigel-coated flasks prepared with a working solution of 1X Ham's F-12 nutrient mix, without supplementation (Thermo Fisher Scientific, cat. 11765054), 100 U/mL penicillin-streptomycin (Thermo Fisher Scientific, cat. 15140122), and 2.5% Matrigel (Corning Inc., Corning, NY, cat. 354248) for the first three passages. The two PDC lines 997537-175-T-J1-PDC and 415267-285-R-J2-PDC were cultured on uncoated flasks. The 857933-349-R-J2-PDC line was cultured in 6C/Colon 1B media containing advanced DMEM/F-12 (Thermo Fisher Scientific, cat. 12634028), 10 mM HEPES (Thermo Fisher Scientific, cat. 15630080), 1X GlutaMAX supplement (Thermo Fisher Scientific, cat. 35050061), 0.1 mg/mL primocin (InvivoGen, San Diego, CA, cat. ant-pm-2), 10% defined fetal bovine serum, heat inactivated (HyClone Laboratories Inc., Logan, UT, cat. SH30070.03HI), 50% L-WRN conditioned media (ATCC, cat. CRL-3276), 1.25 mM N-Acetyl-L-cysteine (Sigma-Aldrich, cat. A9165), 10 mM nicotinamide (Sigma-Aldrich, cat. N0636), 1X B-27 supplement (Thermo Fisher Scientific, cat. 17504044), 1X N-2 supplement (Thermo Fisher Scientific, cat. […]

[1] = second compound 0.0316 µM, first compound 0.0316 µM
[2] = second compound 0.0316 µM, first compound 0.1 µM
[3] = second compound 0.0316 µM, first compound 0.316 µM
[4] = second compound 0.0316 µM, first compound 1 µM
[5] = second compound 0.1 µM, first compound 0.0316 µM
[6] = second compound 0.1 µM, first compound 0.1 µM
[7] = second compound 0.1 µM, first compound 0.316 µM
[8] = second compound 0.1 µM, first compound 1 µM
[9] = second compound 0.316 µM, first compound 0.0316 µM
[10] = second compound 0.316 µM, first compound 0.1 µM
[11] = second compound 0.316 µM, first compound 0.316 µM
[12] = second compound 0.316 µM, first compound 1 µM
[13] = second compound 1 µM, first compound 0.0316 µM
[14] = second compound 1 µM, first compound 0.1 µM
[15] = second compound 1 µM, first compound 0.316 µM
[16] = second compound 1 µM, first compound 1 µM
[17] = second compound 3.16 µM, first compound 0.0316 µM
[18] = second compound 3.16 µM, first compound 0.1 µM
[19] = second compound 3.16 µM, first compound 0.316 µM
[20] = second compound 3.16 µM, first compound 1 µM
[21] = second compound 10 µM, first compound 0.0316 µM
[22] = second compound 10 µM, first compound 0.1 µM
[23] = second compound 10 µM, first compound 0.316 µM
[24] = second compound 10 µM, first compound 1 µM
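Note: spheroids exposed to compounds for one week before readout.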
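Throughout, for viability, T/C: luminescence used as stand-in measure of viable cells; 100% = DMSO vehicle control viability.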

CC1COCCN1c1cc(C2(S(C)(=N)=O)CC2)nc(-c2ccnc3[nH]ccc23)n1 (centres undefined) + COC1C(OC(N)=O)C(O)C(Oc2ccc3c(O)c(NC(=O)c4ccc(O)c(CC=C(C)C)c4)c(=O)oc3c2C)OC1(C)C
IC50 (second compound 0.0316 µM): 463 nM
IC50 (second compound 0.1 µM): 432 nM
IC50 (second compound 0.316 µM): 504 nM
IC50 (second compound 1 µM): 512 nM
IC50 (second compound 3.16 µM): 591 nM
IC50 (second compound 10 µM): 513 nM
viability, T/C [1]: 105%
viability, T/C [2]: 108%
viability, T/C [3]: 67.2%
viability, T/C [4]: 14.9%
viability, T/C (second compound 0.0316 µM, first compound 3.16 µM): 6.29%
viability, T/C (second compound 0.0316 µM, first compound 10 µM): 4.89%
viability, T/C [5]: 105%
viability, T/C [6]: 96.6%
viability, T/C [7]: 65.3%
viability, T/C [8]: 9.55%
viability, T/C (second compound 0.1 µM, first compound 3.16 µM): 5.9%
viability, T/C (second compound 0.1 µM, first compound 10 µM): 4.32%
viability, T/C [9]: 95.4%
viability, T/C [10]: 96.3%
viability, T/C [11]: 76.2%
viability, T/C [12]: 11.6%
viability, T/C (second compound 0.316 µM, first compound 3.16 µM): 7.22%
viability, T/C (second compound 0.316 µM, first compound 10 µM): 5.59%
viability, T/C [13]: 93.2%
viability, T/C [14]: 97.7%
viability, T/C [15]: 76.2%
viability, T/C [16]: 13.5%
viability, T/C (second compound 1 µM, first compound 3.16 µM): 10%
viability, T/C (second compound 1 µM, first compound 10 µM): 4.78%
viability, T/C [17]: 95%
viability, T/C [18]: 105%
viability, T/C [19]: 89.8%
viability, T/C [20]: 16.4%
viability, T/C (second compound 3.16 µM, first compound 3.16 µM): 6.8%
viability, T/C (second compound 3.16 µM, first compound 10 µM): 4.43%
viability, T/C [21]: 97.5%
viability, T/C [22]: 97.9%
viability, T/C [23]: 76.5%
viability, T/C [24]: 13.5%
viability, T/C (second compound 10 µM, first compound 3.16 µM): 6.73%
viability, T/C (second compound 10 µM, first compound 10 µM): 5.32%

COc1cccc(OCCCN)c1-c1cc(Nc2cnc(C#N)cn2)n[nH]1 + COC1C(OC(N)=O)C(O)C(Oc2ccc3c(O)c(NC(=O)c4ccc(O)c(CC=C(C)C)c4)c(=O)oc3c2C)OC1(C)C
IC50 (second compound 0.0316 µM): < 3.16 nM
IC50 (second compound 0.1 µM): < 3.16 nM
IC50 (second compound 0.316 µM): < 3.16 nM
IC50 (second compound 1 µM): 3.68 nM
IC50 (second compound 3.16 µM): 3.6 nM
IC50 (second compound 10 µM): 3.84 nM
viability, T/C (second compound 0.0316 µM, first compound 0.00316 µM): 41.4%
viability, T/C (second compound 0.0316 µM, first compound 0.01 µM): 14.1%
viability, T/C [1]: 7.52%
viability, T/C [2]: 8.68%
viability, T/C [3]: 6.7%
viability, T/C [4]: 4.81%
viability, T/C (second compound 0.1 µM, first compound 0.00316 µM): 40.2%
viability, T/C (second compound 0.1 µM, first compound 0.01 µM): 10.2%
viability, T/C [5]: 7.65%
viability, T/C [6]: 6.8%
viability, T/C [7]: 6.5%
viability, T/C [8]: 5.69%
viability, T/C (second compound 0.316 µM, first compound 0.00316 µM): 46.9%
viability, T/C (second compound 0.316 µM, first compound 0.01 µM): 8.13%
viability, T/C [9]: 8.41%
viability, T/C [10]: 6.89%
viability, T/C [11]: 7.31%
viability, T/C [12]: 4.55%
viability, T/C (second compound 1 µM, first compound 0.00316 µM): 56.2%
viability, T/C (second compound 1 µM, first compound 0.01 µM): 9.03%
viability, T/C [13]: 7.11%
viability, T/C [14]: 7.02%
viability, T/C [15]: 5.8%
viability, T/C [16]: 4.41%
viability, T/C (second compound 3.16 µM, first compound 0.00316 µM): 55.3%
viability, T/C (second compound 3.16 µM, first compound 0.01 µM): 8.65%
viability, T/C [17]: 7.11%
viability, T/C [18]: 7.79%
viability, T/C [19]: 5.22%
viability, T/C [20]: 5.51%
viability, T/C (second compound 10 µM, first compound 0.00316 µM): 58.6%
viability, T/C (second compound 10 µM, first compound 0.01 µM): 7.45%
viability, T/C [21]: 7.04%
viability, T/C [22]: 6.59%
viability, T/C [23]: 6.37%
viability, T/C [24]: 5.49%
